Legend:
[1] = test system: MAP2; assay: MAP2 expression in SH-SY5Y cells (qPCR, immunostaining, immunoblotting); format: cell-based; conditions: undifferentiated SH-SY5Y cells, 10% bacterial supernatant, vs untreated cells
Method: (§1) SH-SY5Y were plated in 10 cm petri dishes a density of 2×10^6 cells. After 24 h cells were treated in differentiation medium (growth medium containing 1% FBS without RA) with 10% bacteria supernatants or YCFA+, 10 uM RA, 200 uM hexanoic acid or 200 uM valproic acid, for 17 hrs. There after representative images were taken using phase contrast EVOS XL core microscope at 40×10.65 magnification. Cells were collected, and total RNA was isolated according to RNeasy mini kit protocol (Qiagen). cDNAs were made using the high capacity cDNA reverse transcription kit (Applied Biosystems). Gene expression was measured using qPCR. GAPDH was used as internal control. Fold change was calculated according to the 2^(−ΔΔct) method.
Cells were seeded onto 8-well chamber slides (Marienfeld Laboratory Glassware) at 5×10^4 cells/well overnight and were treated with 10% bacterial supernatant for 24 h. […]
SH-SY5Y cells cultured under the indicated conditions described above, treated with MRx0029 for 24 h and then lysed in RIPA buffer containing cocktail of protease inhibitors (Roche Diagnostics, UK). […] The blots were then incubated with the appropriate horseradish peroxidase (HRP)-conjugated secondary antibody, and proteins were detected by chemiluminescence detection kit (Pierce Biotechnology, Rockford, Ill.). […]

[2] = test system: DRD2; assay: DRD2 expression in SH-SY5Y cells; format: cell-based; conditions: vs untreated cells
Method: as §1
The inventors measured the change in DRD2 expression in neuroblastoma cells using the same method as described in Example 1.

[3] = test system: 451Lu melanoma cell line; assay: Clonogenic survival of 451Lu cell line; format: cell-based; conditions: relative to both negative controls (cell line only, and YCFA+ +DMSO)
Method: Cells were trypsinized and 200 cells/well were seeded in 12-well plates. After 48 h cells were treated with the appropriate drugs in absence (YCFA+) or presence of 10% bacterial supernatant and were re-fed every three days. On day 21 after seeding, cells were fixed in ice-cold methanol and stained with Crystal Violet blue. […] were counted and survival fraction was calculated as number of colonies divided by the number of plated cells (plating efficiency) of treated divided by the plating efficiency of control.
The effects of the following treatments were assessed on the 451Lu melanoma cell line (V600E oncogenic mutation in BRAF): (1) MRx0029; (2) Vemurafenib (VEMU) in YFCA+ medium; (3) VEMU and MRx0029; (4) Azacytidine-C (Aza-c) in YFCA+ medium; (5) Aza-c and MRx0029; (6) VEMU, Aza-c and MRx0029.

[4] = test system: IL-6; assay: IL-6 secretion by astrocytoma cell line U373 (ELISA); format: cell-based, Human; conditions: U373 cells, 100 μl bacteria supernatant, 24 h, vs untreated and YCFA+ controls
[5] = test system: neuron specific enolase (NSE)/enolase 2; assay: Enolase 2 expression in SH-SY5Y cells (qPCR); format: cell-based; conditions: 10% bacterial supernatants 17 h, vs YCFA+ culture control
Method: SH-SY5Y were plated in 6 well plates at a density of 0.5×10^6 cells. After 24 h, cells were treated in differentiation medium (growth medium containing 1% FBS) with 10% bacterial supernatants or YCFA+ for 17 h. Cells were collected, and total RNA was isolated according to the RNeasy mini kit protocol (Qiagen). cDNA was made using the High Capacity cDNA reverse transcription kit (Applied Biosystems). Gene expression was measured by qPCR. GAPDH was used as internal control. Fold change was calculated according to the 2^(−ΔΔct) method. Primer sets used are listed as SEQ ID NOs: 2, 3, 13 and 14.

[6] = test system: NF-κB-Ap1 promoter; assay: NF-κB promoter activation in HEK-TLR4 reporter cells (SEAP); format: cell-based, human; conditions: 10% supernatant 22 h, on its own (without LPS)
Method: HEK293-Blue reporter cells stably expressing human TLR4 (HEK-TLR4), were cultured according to the manufacturer's instructions. Briefly, HEK-TLR4 cells were maintained in DMEM 4.5 g/L D-glucose supplemented with 10% (v/v) heat-inactivated FBS, 4 mM L-Glutamine, 100 U/ml penicillin, 100 μg/ml streptomycin, 100 μg/ml normocin, 1×HEK-Blue selection media.
Briefly, cells were washed with PBS, dissociated in PBS and collected in growth media. Cells were plated in 96-well plates at a density of 25,000 cells/well. To evaluate the effect of bacteria strains on LPS inducing NF-κB promoter activation, cells were treated with 10 ng/ml LPS in presence or absence of 10% supernatants (isolated as described above) and incubated in a CO2 incubator. Treatments proceeded for 22 h at 37° C. and 5% CO2, after which the detection of Secreted Embryonic Alkaline Phosphatase (SEAP) activity from cell culture supernatant was performed using QUANTI-blue solution according to manufacturer's instructions. Briefly, 20 μl of cell-free supernatant was collected and analysed for the presence of SEAP by mixing with 200 μl of sterile-filtered QUANTI-Blue detection media. After 2 h incubation at 37° C., optical density was measured at 655 nm on a microplate reader (iMark microplate, Bio-Rad).

Q: For Megasphaera massiliensis MRx0029, which “expression of MAP2” value [1] is on record?
A: Its value is “significantly increased the expression of MAP2”.

Q: And the “expression of DRD2” value [2]?
A: Its value is “significantly decreased the expression of DRD2”.

Q: What about the clonogenic survival [3] of the same substance?
A: The clonogenic survival was “decreased clonogenic survival”.

Q: What about the IL-6 secretion [4] of the same substance?
A: The IL-6 secretion was “upregulates IL-6 secretion”.

Q: And the “Enolase 2 expression” value [5]?
A: Its value is “statistically-significant effect of suppressing”.

Q: What about the NF-κB-Ap1 promoter activation [6] of the same substance?
A: The NF-κB-Ap1 promoter activation was “induced NF-κB-Ap1 promoter activation”.

Source: patent US11419902B2, “Compositions comprising bacterial strains” (4D Pharma Research Limited, priority 2018, dated 2022)
